Assay results taken from patent publication US10221144B2, “Antibacterial compounds having broad spectrum of activity” (priority 2014, dated 2019).
Structures can show the parent of a compound that is named as a salt. Where two headings read alike, the source gives them in different places.

Key:
Format in all cases: biochemical
E. coli DNA gyrase = biological target: T1, E. coli DNA gyrase (Escherichia coli, UniProt P0AES4+P0AES6); assay: DNA gyrase supercoiling assay (E. coli)
T1 construct: purchased Inspiralis, UK
Experimental: (§1) The above compounds were tested for the inhibition of the enzyme DNA gyrase in a gyrase supercoiling assay and for the inhibition of the enzyme topoisomerase IV in a decatenation assay, in both Gram positive and Gram negative bacteria, according to the following methods.
(§2) Both the assays were carried out according to a set-up method modified from the article to Blanche F, et al. “Differential Behaviors of Staphylococcus aureus and Escherichia coli Type II DNA Topoisomerases”, Antimicrob. Agents Chemother., 1996, Vol. 40, No. 12 p. 2714-2720.
(§3) The compounds were screened at single concentration (200, 100 or 50 μM), in duplicate.
(§4) Reagents from S. aureus and E. coli Gyrase Supercoiling Assay kits (Inspiralis, UK) were used. A master mix with a total volume sufficient for the number of reactions to perform was prepared with the following reagents: 5× assay buffer, relaxed pBR322 substrate (0.5 μg/reaction), RNase-DNase free water. Aliquotes of this mix were dispensed in each tube, then 10× compound stock solutions or vehicle control (DMSO), were added to each reaction tube.
(§5) Reaction was started with E. Coli (2 U/reaction) or S. aureus (1 U/reaction) gyrase enzyme addition.
(§6) A sample added with an equal volume of dilution buffer was used as negative control (without enzyme).
(§7) The reaction tubes were gentle vortexed and incubated 30 minutes at 37° C. Each reaction was stopped by adding 30 μl of Stop Buffer and 30 μl chloroform/isoamyl alcohol (24/1), briefly vortexed for 5-10 seconds and centrifuged at 20000×g for 2 minutes. Samples were loaded onto 1% agarose gel and subjected to electrophoresis for 1 hour at 80V constant voltage in TAE (40 mM Tris-acetate, 2 mM EDTA).
(§8) Data acquisition and analysis. Treatment of relaxed pBR322 with DNA gyrase converted the relaxed topoisomers (DNAs of different linking number) to the supercoiled form of the plasmid, which migrates faster on an agarose gel. An upper band might also be visible, which consists of open-circular (nicked) DNA which is present in the relaxed substrate but co-migrates with some of the relaxed topoisomers.
(§9) Bands were visualized by ethidium bromide staining (dilution 1:20000) for 30 minutes followed by destaining in distilled water for 10 minutes.
(§10) In order to evaluate the compounds activity on the enzyme, the bands of supercoiled DNAs in the gel were photographed by a digital imaging system ImageQuant LAS 4000 (GE Healthcare) according to manufacturer's instructions.
(§11) The fluorescent intensity of each band was analyzed by ImageQuant TL software and it was expressed as volume (volume of the uncalibrated quantity of material in the image feature after subtraction of the background intensity by using rolling ball method).
(§12) Each band intensity was compared, as percentage, to vehicle sample band intensity, which served as positive control, on the same gel.
(§13) Inhibitory activity was expressed as percent of inhibition versus the positive control.
(§14) The supercoiled or decatenated DNA bands obtained as described in Example 1 were analysed as follows.
(§15) Bands were analyzed by gel documentation equipment (Syngene, Cambridge, UK) and quantitated using Syngene Gene Tools software. Raw gel data (fluorescent band volumes) collected from Syngene, GeneTools gel analysis software were converted to a percentage of the 100% control (the fully supercoiled or decatenated DNA band). […] The IC50 data were calculated by using the global curve fit non-linear regression tool by selecting the Single, 2 Parameter fit function from the Exponential Decay equation category.

S. aureus DNA gyrase = biological target: T2, S. aureus DNA gyrase (Staphylococcus aureus, UniProt P0A0K8+P20831); assay: DNA gyrase supercoiling assay (S. aureus)
T2 construct: purchased Inspiralis, UK
Experimental: as §1, §2, §3, §4, §5, §6, §7, §8, §9, §10, §11, §12, §13, §14, §15

E. coli Topoisomerase IV = biological target: T3, E. coli Topoisomerase IV (Escherichia coli, UniProt P0AFI2+P20083); assay: Topoisomerase IV decatenation assay (E. coli)
T3 construct: purchased Inspiralis, UK
Experimental: as §1, §2, §3
S. aureus and E. coli Topoisomerase IV decatenation kits (Inspiralis, UK) were used. A master mix with a total volume sufficient for the number of reactions to perform was prepared with the following reagents: 5× assay buffer (50 mM HEPES-KOH (pH 7.6), 100 mM potassium glutamate, 10 mM magnesium acetate, 10 mM DTT, 1 mM ATP, 50 μg/ml albumin), kDNA substrate (200 ng/reaction), RNase-DNase free water. Aliquots of this mix were dispensed in each tube, then 10× compound stock solutions or vehicle control (DMSO), were added in each reaction tube.
Reaction was started with Topoisomerase IV enzyme (0.5 U/reaction) addition.
as §6
The reaction tubes were gentle vortexed and incubated 30 minutes at 37° C. Each reaction was stopped by adding 30 μl of Stop Buffer and 30 μl of chloroform/isoamyl alcohol (24/1), briefly vortexed for 5-10 seconds and centrifuged at 20000×g for 2 minutes. Samples taken from the upper phase were loaded into 1% agarose gel and subjected to electrophoresis for 1 hour at 80V constant voltage in TAE (40 mM Tris-acetate, 2 mM EDTA).
Data acquisition and analysis. Due to the high molecular mass, kDNA could not enter an agarose gel under normal electrophoresis conditions, but remained in the wells. In the presence of Topo IV topoisomerase mini-circles (2.5 Kb) were released from kDNA by decatenation and were quickly and easily resolved in the gel at relatively high voltages.
Bands were visualized by ethidium bromide staining (dil 1:20000) for 30 minutes followed by destaining in distilled water for 10 minutes.
For single concentration screening assay, in order to evaluate the compounds activity on the enzymes, the bands of decatenated DNAs in the gel were photographed by a digital imaging system ImageQuant LAS 4000 (GE Healthcare) according to manufacturer's instructions.
as §11, §12, §13, §14, §15

[1] = E. coli, conc. 50 μM, n/a = not active
[2] = E. coli, conc. 50 μM, n/a = not active, read-out: % inhibition Topo IV
[3] = S. aureus, conc. 50 μM, n/a = not active

T1 sequence (P0AES4 whole entry, one chain of several): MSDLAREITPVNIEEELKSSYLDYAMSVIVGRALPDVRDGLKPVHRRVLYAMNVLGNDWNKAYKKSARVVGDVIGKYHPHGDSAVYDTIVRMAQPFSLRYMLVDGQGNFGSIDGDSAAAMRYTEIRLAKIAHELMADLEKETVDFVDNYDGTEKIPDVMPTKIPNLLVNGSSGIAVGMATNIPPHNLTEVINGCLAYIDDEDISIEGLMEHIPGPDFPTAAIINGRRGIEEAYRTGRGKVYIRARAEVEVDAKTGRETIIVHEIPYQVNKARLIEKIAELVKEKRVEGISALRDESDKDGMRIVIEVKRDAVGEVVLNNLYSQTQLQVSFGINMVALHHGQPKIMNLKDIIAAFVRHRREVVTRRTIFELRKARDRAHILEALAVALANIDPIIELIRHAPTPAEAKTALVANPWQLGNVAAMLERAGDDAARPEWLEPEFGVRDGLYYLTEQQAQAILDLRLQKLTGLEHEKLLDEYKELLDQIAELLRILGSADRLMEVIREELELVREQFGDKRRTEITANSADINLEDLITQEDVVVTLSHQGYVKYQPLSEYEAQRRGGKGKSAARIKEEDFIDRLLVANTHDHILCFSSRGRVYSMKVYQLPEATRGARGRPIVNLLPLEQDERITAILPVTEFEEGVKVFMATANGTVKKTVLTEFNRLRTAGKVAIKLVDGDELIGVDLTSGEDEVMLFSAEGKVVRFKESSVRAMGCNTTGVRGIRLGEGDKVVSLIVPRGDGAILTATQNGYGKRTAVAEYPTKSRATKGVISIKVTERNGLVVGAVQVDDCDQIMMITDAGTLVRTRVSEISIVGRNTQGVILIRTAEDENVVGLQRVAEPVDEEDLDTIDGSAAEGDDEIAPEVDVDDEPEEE
T2 sequence (P0A0K8 whole entry): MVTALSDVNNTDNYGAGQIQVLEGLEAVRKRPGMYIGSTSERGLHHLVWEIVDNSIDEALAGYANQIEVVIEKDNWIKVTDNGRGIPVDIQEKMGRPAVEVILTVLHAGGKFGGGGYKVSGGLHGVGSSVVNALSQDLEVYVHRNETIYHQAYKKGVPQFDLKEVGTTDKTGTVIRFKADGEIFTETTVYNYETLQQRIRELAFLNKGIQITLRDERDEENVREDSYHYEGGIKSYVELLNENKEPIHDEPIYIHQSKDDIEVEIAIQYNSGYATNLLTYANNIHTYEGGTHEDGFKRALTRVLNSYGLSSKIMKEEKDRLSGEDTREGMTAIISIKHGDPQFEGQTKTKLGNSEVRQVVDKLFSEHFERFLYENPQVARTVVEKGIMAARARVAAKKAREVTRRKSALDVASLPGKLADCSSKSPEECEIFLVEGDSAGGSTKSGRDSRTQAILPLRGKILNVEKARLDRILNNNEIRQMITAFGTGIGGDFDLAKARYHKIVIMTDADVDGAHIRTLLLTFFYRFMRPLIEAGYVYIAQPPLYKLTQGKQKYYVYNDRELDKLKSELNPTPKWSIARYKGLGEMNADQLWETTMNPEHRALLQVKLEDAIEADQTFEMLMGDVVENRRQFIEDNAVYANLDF
T2 sequence (P20831 whole entry): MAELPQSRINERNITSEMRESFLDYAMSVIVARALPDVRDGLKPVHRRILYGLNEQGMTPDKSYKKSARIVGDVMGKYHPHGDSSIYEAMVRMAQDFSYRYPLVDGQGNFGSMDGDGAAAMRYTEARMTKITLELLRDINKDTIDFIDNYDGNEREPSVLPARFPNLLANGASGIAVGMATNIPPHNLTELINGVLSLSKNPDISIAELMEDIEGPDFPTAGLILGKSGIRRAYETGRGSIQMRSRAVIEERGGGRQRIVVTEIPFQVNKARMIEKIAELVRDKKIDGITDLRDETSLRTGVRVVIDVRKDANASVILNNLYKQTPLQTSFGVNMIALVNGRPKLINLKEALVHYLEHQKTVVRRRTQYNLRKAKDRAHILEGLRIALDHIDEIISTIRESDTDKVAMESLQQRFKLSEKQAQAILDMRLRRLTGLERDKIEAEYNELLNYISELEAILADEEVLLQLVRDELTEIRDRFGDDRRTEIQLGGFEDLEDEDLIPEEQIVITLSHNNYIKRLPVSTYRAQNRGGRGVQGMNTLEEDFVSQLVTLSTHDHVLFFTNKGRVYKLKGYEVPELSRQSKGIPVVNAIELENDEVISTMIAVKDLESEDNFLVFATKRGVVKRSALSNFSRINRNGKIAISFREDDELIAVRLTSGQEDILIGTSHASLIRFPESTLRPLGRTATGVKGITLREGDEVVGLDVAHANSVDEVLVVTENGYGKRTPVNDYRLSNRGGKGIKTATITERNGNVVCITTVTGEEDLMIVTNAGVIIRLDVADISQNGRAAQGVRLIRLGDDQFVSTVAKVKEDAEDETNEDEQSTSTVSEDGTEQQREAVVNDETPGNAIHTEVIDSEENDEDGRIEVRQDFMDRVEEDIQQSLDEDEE
T3 sequence (P20083 whole entry): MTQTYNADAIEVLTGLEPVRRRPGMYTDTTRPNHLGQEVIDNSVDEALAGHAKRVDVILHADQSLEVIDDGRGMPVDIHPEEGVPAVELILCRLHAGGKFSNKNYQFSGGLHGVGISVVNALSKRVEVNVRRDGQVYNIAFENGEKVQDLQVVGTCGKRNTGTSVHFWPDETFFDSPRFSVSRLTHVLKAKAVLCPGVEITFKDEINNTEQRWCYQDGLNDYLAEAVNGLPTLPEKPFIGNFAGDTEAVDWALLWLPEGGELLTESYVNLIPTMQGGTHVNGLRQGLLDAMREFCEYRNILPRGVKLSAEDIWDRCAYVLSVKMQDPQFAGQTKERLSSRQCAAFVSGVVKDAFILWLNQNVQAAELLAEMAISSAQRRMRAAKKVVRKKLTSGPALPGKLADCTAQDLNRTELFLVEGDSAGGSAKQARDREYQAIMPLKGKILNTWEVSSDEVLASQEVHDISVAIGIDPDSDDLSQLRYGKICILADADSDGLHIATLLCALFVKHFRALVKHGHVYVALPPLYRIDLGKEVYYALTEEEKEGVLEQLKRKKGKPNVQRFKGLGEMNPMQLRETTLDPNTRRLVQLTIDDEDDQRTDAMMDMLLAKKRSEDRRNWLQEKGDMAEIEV
T3 sequence (P0AFI2 whole entry): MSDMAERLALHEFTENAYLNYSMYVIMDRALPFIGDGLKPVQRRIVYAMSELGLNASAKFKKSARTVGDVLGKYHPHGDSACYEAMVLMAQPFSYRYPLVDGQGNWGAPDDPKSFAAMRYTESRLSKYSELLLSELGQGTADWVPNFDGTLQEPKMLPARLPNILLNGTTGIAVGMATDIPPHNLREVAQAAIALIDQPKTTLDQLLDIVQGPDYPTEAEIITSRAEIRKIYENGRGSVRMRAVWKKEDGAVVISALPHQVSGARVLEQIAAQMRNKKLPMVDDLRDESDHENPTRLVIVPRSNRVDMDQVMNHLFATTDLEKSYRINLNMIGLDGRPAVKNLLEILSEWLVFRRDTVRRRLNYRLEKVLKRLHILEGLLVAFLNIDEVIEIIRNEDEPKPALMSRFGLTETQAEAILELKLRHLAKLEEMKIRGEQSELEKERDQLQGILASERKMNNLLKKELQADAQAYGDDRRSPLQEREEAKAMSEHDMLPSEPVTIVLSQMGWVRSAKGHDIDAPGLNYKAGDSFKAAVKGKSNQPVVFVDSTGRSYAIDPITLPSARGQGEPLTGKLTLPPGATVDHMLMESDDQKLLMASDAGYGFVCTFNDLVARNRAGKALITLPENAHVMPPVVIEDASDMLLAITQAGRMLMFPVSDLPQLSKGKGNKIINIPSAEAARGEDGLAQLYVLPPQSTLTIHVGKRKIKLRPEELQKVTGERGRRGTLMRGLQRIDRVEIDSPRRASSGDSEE

Compound	IC50 (E. coli DNA gyrase) [µM]	inhibition at 100 µM (E. coli DNA gyrase; E. coli, conc. 100 μM, n/a = not active) [%]	IC50 (S. aureus DNA gyrase) [µM]	inhibition at 100 µM (S. aureus DNA gyrase; S. aureus, conc. 100 μM, n/a = not active) [%]	IC50 (E. coli Topoisomerase IV) [µM]	inhibition at 100 µM (E. coli Topoisomerase IV; E. coli, conc. 100 μM, n/a = not active, read-out: % inhibition Topo IV) [%]	inhibition at 50 µM (E. coli DNA gyrase; [1]) [%]	inhibition at 50 µM (E. coli Topoisomerase IV; [2]) [%]	inhibition at 50 µM (S. aureus DNA gyrase; [3]) [%]	% inhibition DNA gyrase (E. coli DNA gyrase; [1]) [%]	IC50 (E. coli DNA gyrase; E. coli, concentration-response curve, eight half-log concentrations 0.1 to 300 μM, read-out: IC50 DNA gyrase) [µM]	% inhibition DNA gyrase (S. aureus DNA gyrase; [3]) [%]	IC50 (S. aureus DNA gyrase; S. aureus, concentration-response curve, eight half-log concentrations 0.1 to 300 μM, read-out: IC50 DNA gyrase) [µM]	% inhibition Topo IV (E. coli Topoisomerase IV; [1]) [%]	IC50 (E. coli Topoisomerase IV; E. coli, concentration-response curve, eight half-log concentrations 0.1 to 300 μM, read-out: IC50 Topo IV) [µM]
O=c1cc(NCCCN2CCN(c3nccc4cccnc34)CC2)c2ccccc2o1 [Compound 61, 4-({3-[4-(1,7-naphthyridin-8-yl)piperazin-1-yl]propyl}amino)-2H-chromen-2-one]	3.3	92	8.7	88	20.2	92	–	–	–	–	–	–	–	–	–
NC(=O)C1CN(c2nccc3ccccc23)CCN1CCCNc1cc(=O)oc2ccccc12 (stereo not shown) [Compound 89, 4-(isoquinolin-1-yl)-1-{3-[(2-oxo-2H-chromen-4-yl)amino]propyl}piperazine-2-carboxamide hydrochloride]	28	–	–	–	54	–	87	51	–	–	–	–	–	–	–
O=c1cc(NCCCN2CCN(c3nccc4ccccc34)CC2CO)c2ccccc2o1 (stereo not shown) [Compound 90, 4-({3-[2-(hydroxymethyl)-4-(isoquinolin-1-yl)piperazin-1-yl]-propyl}amino)-2H-chromen-2-one]	8.3	–	9.3	–	15.5	–	93	81	89	–	–	–	–	–	–
[O-][n+]1ccc2ccc(F)cc2c1Cl [Compound 100, 1-chloro-7-fluoroisoquinolin-2-ium-2-olate]	–	–	–	–	–	–	–	–	–	95	4.5	91	4.7	76	10.2
O=c1cc(NCCC[N+]2([O-])CCN(c3nccc4ccc(F)cc34)CC2)c2ccccc2o1 [Compound 105, 4-({3-[4-(7-fluoroisoquinolin-1-yl)-1-oxidopiperazin-1-yl]propyl}amino)-2H-chromen-2-one]	11.4	–	6.6	–	5.6	–	91	66	100	–	–	–	–	–	–
O=c1cc(NCCCN2CCC(c3nccc4ccccc34)CC2)c2ccccc2o1 [Compound 109, 4-({3-[4-(isoquinolin-1-yl)piperidin-1-yl]propyl}amino)-2H-chromen-2-one]	5.1	–	20.7	–	5.6	–	100	72	100	–	–	–	–	–	–
C[N+]1(CCCNc2cc(=O)oc3ccccc23)CCN(c2nccc3ccccc23)CC1 [Compound 124, 4-(isoquinolin-1-yl)-1-methyl-1-{3-[(2-oxo-2H-chromen-4-yl)amino]propyl}piperazin-1-ium iodide]	7	–	9	–	6	–	79	62	75	–	–	–	–	–	–
O=c1cc(NCCCN2CCN(c3nccc4ccc(F)cc34)CC2)c2c(o1)CCOC2 [Compound 125, 4-({3-[4-(7-fluoroisoquinolin-1-yl)piperazin-1-yl]propyl}amino)-7,8-dihydro-2H,5H-pyrano[4,3-b]pyran-2-one]	6.3	–	19	–	59	–	86	68	89	–	–	–	–	–	–
O=c1cc(CC(O)CCN2CCN(c3nccc4ccc(F)cc34)CC2)c2ccccc2o1 (stereo not shown) [Compound 134, 4-{4-[4-(7-fluoroisoquinolin-1-yl)piperazin-1-yl]-2-hydroxybutyl}-2H-chromen-2-one]	2.8	–	0.81	–	2.5	–	87	78	71	–	–	–	–	–	–
